Here are results for three compounds from patent US20140329892A1, “ADMINISTRATION OF A BIS(THIOHYDRAZIDE AMIDE) COMPOUND FOR TREATING CANCERS” (priority 2011, published 2014).

Series [1] concerns mitochondria isolated from HL-60 cells. Kind of series: MitoSox Red ROS assay in isolated mitochondria. In kind it is cell-based, human. Conditions: HL-60-derived mitochondria, 0.2 μM and 1 μM, 30 minutes. As to the method:
Mitochondria isolated from PBMCs or from HL-60 cells were treated for 30 minutes with either DMSO, free copper (CuCl2) at the concentrations of 0.2 μM and 1 μM, disulfiram-Cu complex (DSF-Cu) at the concentrations of 0.2 μM and 1 μM, and elesclomol-Cu complex at the concentrations of 0.2 μM and 1 μM. Subsequent to incubation, ROS levels were measured by MitoSox Red. The results of the MitoSox Red assay are shown in FIG. 2 as mean±SD of experiments with PBMCs isolated from three independent donors or with three individual experiments with HL-60.

Series [2] in a line: Pharmacokinetics of I.V. bolus and continuous infusion (Alzet pump) in mice. Type of series: in vivo, Mouse.
Description: (§2) Mice received elesclomol salt administered in a single I.V. bolus dose of 50 mg/kg. Mice also received elesclomol salt administered by continuous infusion via Alzet pump. The pump was filled with a 40 mg/mL solution of elesclomol salt, and the solution was administered at 1 ml/hr, for a total daily dose of 32 mg/kg/day, based on average body weight of 30 g. The solution was delivered continuously for 7 days, and exposure was calculated from plasma levels collected at 70 hours post pump implantation.
Series [3] concerns HL-60 cells. The experiment in a line: Subcellular copper content by BCA assay after elesclomol-Cu treatment. In kind it is cell-based, human. Conditions: HL-60 cells treated for 2 hours. The procedure:
(§1) Human peripheral blood mononuclear cells (PBMCs) from 3 independent donors and human promyelotic tumor cell line HL-60 were treated with the elesclomol-Cu complex for 2 hours. Cells were subsequently fractionated into cytosolic, nuclear or mitochondrial fractions and the subcellular copper content was determined by BCA assay.

The subject of series [4] is peripheral blood mononuclear cells (PBMCs). The series is described as above. Type of series: cell-based, human. Conditions: PBMCs from 3 donors treated for 2 hours. As to the method:
as §1

The nature of series [5]: Mouse toxicity study of elesclomol salt continuously administered via Alzet pump. Also noted: species or system mice of strain CD1. Conditions: in vivo. The procedure:
A total of 15 mice of strain CD1 were used for the toxicity study, of which 10 were in the elesclomol salt treatment group, and 5 were in the control group. Alzet pump was filled with a total of 200 μl of infusion solution and implanted subcutaneously within 1-2 hours. The infusion solution was continuously delivered for 7 days, and the pump was replaced with a new pump at day 8.

For series [6], the system named is HL-60 cells. The experiment in a line: Cellular copper and elesclomol levels after elesclomol incubation. In kind it is cell-based, human. Conditions: 100 nM, 3 hours. As to the method: PBMCs and HL-60 cells were incubated with a vehicle (DMSO) or with 100 nM elesclomol for 3 hours. Subsequent to incubation, cellular copper levels and elesclomol levels for PBMCs and HL-60 cells were determined and are shown in FIG. 3.

The nature of series [7]: Pharmacokinetics of 1-hour infusion in humans. Conditions: Human, 200 mg/m^2.
Description: as §2
In series [8] the test system is HL-60 cells enriched with ^63Cu. The experiment in a line: Cellular 63Cu and 65Cu levels by ICP-MS. Type of series: cell-based, human. Conditions: 100 nM, 0, 0.5, 3 and 9 hours, 10% FBS medium. As to the method:
A complex of elesclomol with ^65Cu was prepared. HL-60 cells enriched with ^63Cu were treated with 100 nM elesclomol-^65Cu or 100 nM free ^65Cu for 0, 0.5, 3 and 9 hours in 10% FBS medium. Cellular ^63Cu and ^65Cu levels were measured by inductively coupled plasma mass spectroscopy (ICP-MS).

With `CN1C(c2ccccc2)=[S][Cu]23[S]=C(c4ccccc4)N(C)[N]2C(=O)CC(=O)[N]13` [Elesclomol-Cu], the “ROS levels (MitoSox Red)” value in series [1] is “induces ROS in HL-60-derived mitochondria”. Further, the Exposure/day in series [2] (mouse, in vivo, 32 mg/kg/day) was found to be 516 h * ng/mL/d; in series [2] (mouse, in vivo, iv, 50 mg/kg), 670 h * ng/mL/d. Moreover, the “relative copper levels in the nuclear, cytosolic and mitochondrial fractions” value is “copper levels increased only in HL-60 cells, particularly, in the mitochondrial fraction” in the series on HL-60 cells [3] and “increased only in HL-60 cells” in series [4].
`CN(NC(=O)CC(=O)NN(C)C(=S)c1ccccc1)C(=S)c1ccccc1` [elesclomol, Elesclomol]: the “overall toxicity / adverse effects” value in series [5] is reported as “not associated with acute toxicity”. Moreover, the cellular copper levels result in the series on HL-60 cells [6] (HL-60 cells) was “remarkably and selectively elevated”. Further, the cellular elesclomol levels entry in the series on HL-60 cells [6] (HL-60 cells compared with PBMCs) is given as “slightly lower than that in PBMCs”. The Exposure/day is recorded as 4938 h * ng/mL/d in series [7]; 5140 h * ng/mL/d in series [2] (Mouse, elesclomol salt I.V. bolus, 50 mg/kg); 1183 h * ng/mL/d in series [2] (Mouse, elesclomol salt by continuous infusion (pump), 32 mg/kg/d, calculated from plasma levels at 70 hours post pump implantation).
For `CN1C(c2ccccc2)=[S][65Cu]23[S]=C(c4ccccc4)N(C)[N]2C(=O)CC(=O)[N]13` [elesclomol-^65Cu], in series [8], the “accumulation of ^63Cu in cells” value was “cause accumulation of ^63Cu in HL-60 cancer cells” and the “amount of copper accumulated in the cells versus length of exposure” value was “directly proportional to the length of time”.
